Here are results for seven molecules from US7067112B2, “Cephaibols: novel antiparasitics from Acremonium tubakii, process for their production, and use thereof” (Sanofi-Aventis Deutschland GmbH, priority 1999, dated 2006).

A short description of data set [1]: stability (physicochemical properties). The following applies: in neutral, mildly acidic and mildly alkaline medium. The source says: (§1) The physicochemical and spectroscopic properties of the cephaibols according to the invention can be summarized as follows: […]
Data set [2] in a line: solubility (physicochemical properties).
Description: as §1

Molecules are shown by their SMILES. Square brackets hold non-standard residues; d marks the D form. Peptide text beside a SMILES is read from it. Hyp = O=C(O)[CH]1C[CH](O)CN1; Phe(ol) = N[CH](CO)Cc1ccccc1; Iva = CC[C](C)(N)C(=O)O; Aib = CC(C)(N)C(=O)O

Regarding `CCC(C)(NC(=O)C(CCC(N)=O)NC(=O)C1CC(O)CN1C(=O)C(C)(C)NC(=O)C(C)(C)NC(=O)C(CC(C)C)NC(=O)CNC(=O)C(C)(C)NC(=O)C(C)(C)NC(=O)C(C)(C)NC(=O)C(C)(C)NC(=O)C(Cc1ccccc1)NC(C)=O)C(=O)N1CC(O)CC1C(=O)NC(C)(C)C(=O)N1CCCC1C(=O)NC(CO)Cc1ccccc1` (stereo not drawn) [Cephaibol E, AcPhe-Aib-Aib-Aib-Aib-Gly-Leu-Aib-Aib-Hyp-Gln-Iva-Hyp-Aib-Pro-Phe-ol] (Ac-F[Aib][Aib][Aib][Aib]GL[Aib][Aib][Hyp]Q[Iva][Hyp][Aib]P[Phe(ol)]; configuration not given here), the stability entry in data set [1] was “stable”. In addition, in data set [2], the “solubility in polar organic solvents” value is “soluble” and the solubility in water entry is on record as “only slightly soluble”.
The like results for `CCC(C)(NC(=O)C(CC(C)C)NC(=O)CNC(=O)C(C)(C)NC(=O)C(C)(C)NC(=O)C(C)(C)NC(=O)C(C)(C)NC(=O)C(Cc1ccccc1)NC(C)=O)C(=O)NC(C)(C)C(=O)N1CC(O)CC1C(=O)NC(CCC(N)=O)C(=O)NC(C)(C)C(=O)N1CC(O)CC1C(=O)NC(C)(C)C(=O)N1CCCC1C(=O)NC(CO)Cc1ccccc1` (stereo not drawn) [Cephaibol C, AcPhe-Aib-Aib-Aib-Aib-Gly-Leu-Iva-Aib-Hyp-Gln-Aib-Hyp-Aib-Pro-Phe-ol] (Ac-F[Aib][Aib][Aib][Aib]GL[Iva][Aib][Hyp]Q[Aib][Hyp][Aib]P[Phe(ol)]; configuration not given here) were, in that order, “stable”, “soluble” and “only slightly soluble”.
The like results for `CCC(C)C(NC(=O)C(C)(C)NC(=O)C(CCC(N)=O)NC(=O)C(C)(CC)NC(=O)C(Cc1ccccc1)NC(C)=O)C(=O)NC(C(=O)NC(C)(C)C(=O)NC(CC(C)C)C(=O)NC(C)(C)C(=O)N1CCCC1C(=O)NC(CCC(N)=O)C(=O)NC(C)(C)C(=O)N1CC(O)CC1C(=O)NC(C)(C)C(=O)N1CCCC1C(=O)NC(Cc1ccccc1)C(=O)NC(CO)C(=O)O)C(C)O` (stereo not drawn) [Cephaibol Q, AcPhe-Iva-Gln-Aib-Ile-Thr-Aib-Leu-Aib-Pro-Gln-Aib-Hyp-Aib-Pro-Phe-Ser] (Ac-F[Iva]Q[Aib]IT[Aib]L[Aib]PQ[Aib][Hyp][Aib]PFS-OH; configuration not given here) were, in that order, “stable”, “soluble” and “only slightly soluble”.
The like results for `CCC(C)(NC(=O)C(CC(C)C)NC(=O)C(C)NC(=O)C(C)(C)NC(=O)C(C)(C)NC(=O)C(C)(C)NC(=O)C(C)(C)NC(=O)C(Cc1ccccc1)NC(C)=O)C(=O)NC(C)(C)C(=O)N1CC(O)CC1C(=O)NC(CCC(N)=O)C(=O)NC(C)(CC)C(=O)N1CC(O)CC1C(=O)NC(C)(C)C(=O)N1CCCC1C(=O)NC(CO)Cc1ccccc1` (stereo not drawn) [Cephaibol A1, AcPhe-Aib-Aib-Aib-Aib-Ala-Leu-Iva-Aib-Hyp-Gln-Iva-Hyp-Aib-Pro-Phe-ol] (Ac-F[Aib][Aib][Aib][Aib]AL[Iva][Aib][Hyp]Q[Iva][Hyp][Aib]P[Phe(ol)]; configuration not given here) were, in that order, “stable”, “soluble” and “only slightly soluble”.
Take `CC(=O)NC(Cc1ccccc1)C(=O)NC(C)(C)C(=O)NC(C)(C)C(=O)NC(C)(C)C(=O)NC(C)(C)C(=O)NCC(=O)NC(CC(C)C)C(=O)NC(C)(C)C(=O)NC(C)(C)C(=O)N1CC(O)CC1C(=O)NC(CCC(N)=O)C(=O)NC(C)(C)C(=O)N1CC(O)CC1C(=O)NC(C)(C)C(=O)N1CCCC1C(=O)NC(CO)Cc1ccccc1` (stereo not drawn) [Cephaibol D, AcPhe-Aib-Aib-Aib-Aib-Gly-Leu-Aib-Aib-Hyp-Gln-Aib-Hyp-Aib-Pro-Phe-ol] (Ac-F[Aib][Aib][Aib][Aib]GL[Aib][Aib][Hyp]Q[Aib][Hyp][Aib]P[Phe(ol)]; configuration not given here): in data set [1], the stability result is on record as “stable”. For the same molecule, in data set [2], the “solubility in polar organic solvents” value is on record as “soluble” and the solubility in water result was “only slightly soluble”.
The like results for `CCC(C)C(NC(=O)C(C)(C)NC(=O)C(CCC(N)=O)NC(=O)C(C)(CC)NC(=O)C(Cc1ccccc1)NC(C)=O)C(=O)NC(C(=O)NC(C)(C)C(=O)NC(CC(C)C)C(=O)NC(C)(C)C(=O)N1CC(O)CC1C(=O)NC(CCC(N)=O)C(=O)NC(C)(C)C(=O)N1CC(O)CC1C(=O)NC(C)(C)C(=O)N1CCCC1C(=O)NC(Cc1ccccc1)C(=O)NC(CO)C(=O)O)C(C)O` (stereo not drawn) [Cephaibol P, AcPhe-Iva-Gln-Aib-Ile-Thr-Aib-Leu-Aib-Hyp-Gln-Aib-Hyp-Aib-Pro-Phe-Ser] (Ac-F[Iva]Q[Aib]IT[Aib]L[Aib][Hyp]Q[Aib][Hyp][Aib]PFS-OH; configuration not given here) were, in that order, “stable”, “soluble” and “only slightly soluble”.
As for `CCC(C)(NC(=O)C(CC(C)C)NC(=O)CNC(=O)C(C)(CC)NC(=O)C(C)(C)NC(=O)C(C)(C)NC(=O)C(C)(C)NC(=O)C(Cc1ccccc1)NC(C)=O)C(=O)NC(C)(C)C(=O)N1CC(O)CC1C(=O)NC(CCC(N)=O)C(=O)NC(C)(CC)C(=O)N1CC(O)CC1C(=O)NC(C)(C)C(=O)N1CCCC1C(=O)NC(CO)Cc1ccccc1` (stereo not drawn) [Cephaibol B, AcPhe-Aib-Aib-Aib-Iva-Gly-Leu-Iva-Aib-Hyp-Gln-Iva-Hyp-Aib-Pro-Phe-ol] (Ac-F[Aib][Aib][Aib][Iva]GL[Iva][Aib][Hyp]Q[Iva][Hyp][Aib]P[Phe(ol)]; configuration not given here), in data set [1], the stability result was “stable”. In addition, in data set [2], the “solubility in polar organic solvents” value is recorded as “soluble” and the solubility in water entry is given as “only slightly soluble”.
